Columns and labels:
Experiment in all cases: greenhouse pre-emergence herbicidal test
Type in all cases: in vivo
[1] = tested on: Amaranthus retroflexus
Excerpt: (§1) The seeds of the test plants were sown separately for each species. For the pre-emergence treatment, the active ingredients, which had been suspended or emulsified in water, were applied directly after sowing by means of finely distributing nozzles. The containers were irrigated gently to promote germination and growth and subsequently covered with transparent plastic hoods until the plants had rooted. This cover caused uniform germination of the test plants, unless this had been impaired by the active ingredients. […] The test period extended over 2 to 4 weeks. During this time, the plants were tended, and their response to the individual treatments was evaluated. Evaluation was carried out using a scale from 0 to 100. 100 means no emergence of the plants, or complete destruction of at least the aerial moieties, and 0 means no damage, or normal course of growth. A moderate herbicidal activity is given at values of at least 60, a good herbicidal activity is given at values of at least 70, and a very good herbicidal activity is given at values of at least 85. The plants used in the greenhouse experiments were of the following species: [table]

[2] = tested on: Echinocloa crus-galli
Excerpt: as §1

[3] = tested on: Setaria faberi
Excerpt: as §1

[4] = tested on: Abutilon theophrasti
Excerpt: (§2) The culture containers used were plastic flowerpots containing loamy sand with approximately 3.0% of humus as the substrate. The seeds of the test plants were sown separately for each species.
(§3) For the pre-emergence treatment, the active ingredients, which had been suspended or emulsified in water, were applied directly after sowing by means of finely distributing nozzles.
(§4) The containers were irrigated gently to promote germination and growth and subsequently covered with transparent plastic hoods until the plants had rooted. This cover caused uniform germination of the test plants, unless this had been impaired by the active ingredients.
(§5) Depending on the species, the plants were kept at 10-25° C. or 20-35° C., respectively.
(§6) The test period extended over 2 to 4 weeks. During this time, the plants were tended, and their response to the individual treatments was evaluated.
(§7) Evaluation was carried out using a scale from 0 to 100. 100 means no emergence of the plants, or complete destruction of at least the aerial moieties, and 0 means no damage, or normal course of growth. A moderate herbicidal activity is given at values of at least 60, a good herbicidal activity is given at values of at least 70, and a very good herbicidal activity is given at values of at least 85.
(§8) The plants used in the greenhouse experiments were of the following species: […]

[5] = tested on: Alopercurus myosuroides
Excerpt: as §2, §3, §4, §5, §6, §7, §8

[6] = tested on: Apera spica-venti
Excerpt: as §2, §3, §4, §5, §6, §7, §8

[7] = tested on: Lolium multiflorum
Excerpt: as §2, §3, §4, §5, §6, §7, §8

[8] = tested on: Digitaria sanguinalis
Excerpt: as §2, §3, §4, §5, §6, §7, §8

Compound: COc1c(Cl)cc(F)c(C)c1Nc1nc(N)nc(C2(F)CC2)n1 [Example 92]
- herbicidal activity ([1]; 62 g/ha): 100%
- herbicidal activity ([2]; 62 g/ha): 100%
- herbicidal activity ([2]; 62.5 g/ha): 100%
- herbicidal activity ([3]; 62 g/ha): 100%
- herbicidal activity ([4]; 62.5 g/ha): 100%
- herbicidal activity ([5]; 62.5 g/ha): 100%

Compound: CCOc1c(Br)cc(F)c(Cl)c1Nc1nc(N)nc(C(C)(C)F)n1 [Example 30]
- herbicidal activity ([1]; 31 g/ha): 85%
- herbicidal activity ([3]; 31 g/ha): 100%
- herbicidal activity ([4]; 31 g/ha): 100%
- herbicidal activity ([5]; 31 g/ha): 100%
- herbicidal activity ([6]; 31 g/ha): 85%

Compound: COc1c(Cl)cc(Cl)c(C)c1Nc1nc(N)nc(C(C)F)n1 (centres unmarked) [Example 35]
- herbicidal activity ([1]; 62.5 g/ha): 100%
- herbicidal activity ([1]; 125 g/ha): 100%
- herbicidal activity ([2]; 62.5 g/ha): 100%
- herbicidal activity ([4]; 62.5 g/ha): 100%
- herbicidal activity ([4]; 125 g/ha): 95%
- herbicidal activity ([6]; 125 g/ha): 100%

Compound: COc1c(Cl)cc(C)c(C)c1Nc1nc(N)nc(C(C)(C)F)n1 [Example 15]
- herbicidal activity ([2]; 125 g/ha): 100%
- herbicidal activity ([3]; 31 g/ha): 90%
- herbicidal activity ([3]; 125 g/ha): 100%
- herbicidal activity ([5]; 31 g/ha): 95%
- herbicidal activity ([5]; 125 g/ha): 100%
- herbicidal activity ([7]; 31 g/ha): 95%

Compound: COc1c(Cl)cc(Cl)c(C)c1Nc1nc(N)nc(C(F)(F)F)n1 [Example 33]
- herbicidal activity ([1]; 62.5 g/ha): 100%
- herbicidal activity ([2]; 62.5 g/ha): 98%
- herbicidal activity ([2]; 125 g/ha): 100%
- herbicidal activity ([3]; 125 g/ha): 100%
- herbicidal activity ([4]; 62.5 g/ha): 100%
- herbicidal activity ([5]; 125 g/ha): 100%

Compound: COc1c(Br)cc(C)c(C)c1Nc1nc(N)nc(C(C)(C)OC)n1 [Example 48]
- herbicidal activity ([1]; 31 g/ha): 100%
- herbicidal activity ([2]; 31 g/ha): 70%
- herbicidal activity ([2]; 62 g/ha): 90%
- herbicidal activity ([3]; 31 g/ha): 100%
- herbicidal activity ([3]; 62 g/ha): 80%
- herbicidal activity ([7]; 62 g/ha): 98%

Compound: COc1c(Cl)ccc(Cl)c1Nc1nc(N)nc(C(C)(C)F)n1 [Example 20]
- herbicidal activity ([1]; 62.5 g/ha): 100%
- herbicidal activity ([2]; 62 g/ha): 100%
- herbicidal activity ([2]; 62.5 g/ha): 100%
- herbicidal activity ([3]; 62 g/ha): 100%
- herbicidal activity ([4]; 62.5 g/ha): 100%
- herbicidal activity ([5]; 62 g/ha): 100%

Compound: COc1c(C)ccc(C)c1Nc1nc(N)nc(C(C)(C)F)n1 [Example 14]
- herbicidal activity ([1]; 62 g/ha): 100%
- herbicidal activity ([2]; 62 g/ha): 100%
- herbicidal activity ([2]; 125 g/ha): 98%
- herbicidal activity ([3]; 125 g/ha): 100%
- herbicidal activity ([4]; 62 g/ha): 100%
- herbicidal activity ([5]; 125 g/ha): 98%

Compound: COc1c(Cl)cc(Cl)c(Cl)c1Nc1nc(N)nc(C(C)(C)F)n1 [Example 2]
- herbicidal activity ([1]; 250 g/ha): 100%
- herbicidal activity ([2]; 62.5 g/ha): 100%
- herbicidal activity ([2]; 250 g/ha): 100%
- herbicidal activity ([3]; 250 g/ha): 100%
- herbicidal activity ([4]; 62.5 g/ha): 100%
- herbicidal activity ([8]; 62.5 g/ha): 100%

Compound: C#CCOc1c(Br)cc(F)c(Cl)c1Nc1nc(N)nc(C(C)(C)F)n1 [Example 31]
- herbicidal activity ([1]; 250 g/ha): 100%
- herbicidal activity ([2]; 250 g/ha): 100%
- herbicidal activity ([3]; 31 g/ha): 100%
- herbicidal activity ([4]; 31 g/ha): 100%
- herbicidal activity ([4]; 250 g/ha): 100%
- herbicidal activity ([6]; 31 g/ha): 100%

Compound: COc1c(Br)cc(C)c(C)c1Nc1nc(N)nc(C(C)F)n1 (centres unmarked) [Example 46]
- herbicidal activity ([1]; 62 g/ha): 100%
- herbicidal activity ([1]; 62.5 g/ha): 100%
- herbicidal activity ([2]; 62.5 g/ha): 100%
- herbicidal activity ([3]; 62 g/ha): 100%
- herbicidal activity ([3]; 62.5 g/ha): 100%
- herbicidal activity ([7]; 62 g/ha): 80%

Compound: COc1c(Cl)cc(Br)c(Cl)c1Nc1nc(N)nc(C(C)(C)F)n1 [Example 12]
- herbicidal activity ([1]; 250 g/ha): 100%
- herbicidal activity ([2]; 250 g/ha): 100%
- herbicidal activity ([3]; 250 g/ha): 100%
- herbicidal activity ([4]; 250 g/ha): 100%
- herbicidal activity ([5]; 250 g/ha): 100%

Compound: COc1c(Cl)cc(C)c(Cl)c1Nc1nc(N)nc(C(C)(C)F)n1 [Example 63]
- herbicidal activity ([1]; 31 g/ha): 80%
- herbicidal activity ([1]; 62 g/ha): 100%
- herbicidal activity ([2]; 62 g/ha): 100%
- herbicidal activity ([3]; 31 g/ha): 100%
- herbicidal activity ([4]; 62 g/ha): 100%
- herbicidal activity ([5]; 31 g/ha): 80%

Compound: COc1c(F)cc(Cl)c(C)c1Nc1nc(N)nc(C(C)(C)F)n1 [Example 7]
- herbicidal activity ([1]; 32 g/ha): 100%
- herbicidal activity ([2]; 125 g/ha): 100%
- herbicidal activity ([3]; 125 g/ha): 100%
- herbicidal activity ([4]; 32 g/ha): 100%
- herbicidal activity ([4]; 125 g/ha): 100%
- herbicidal activity ([8]; 32 g/ha): 100%

Compound: C#CCOc1c(Cl)cc(C)c(Cl)c1Nc1nc(N)nc(C(C)(C)F)n1 [Example 64]
- herbicidal activity ([2]; 62 g/ha): 100%
- herbicidal activity ([3]; 62 g/ha): 100%
- herbicidal activity ([4]; 62 g/ha): 100%
- herbicidal activity ([7]; 62 g/ha): 98%

Reference: US20240150303A1, “DIAMINOTRIAZINE COMPOUNDS” (BASF SE, priority 2021, published 2024)
